Assay results taken from US20020192159A1, “Single-patient drug trials used with accumulated database: flowchart” (priority 2001, published 2002).
Counter-ions that a name gives are not always drawn.

What was measured:
hypertensive person = experiment: double-blind single-patient trial of verapamil as therapeutic alternative to propranolol; format: in vivo, human; details: for mean systolic blood pressure increases: end of six week trial, verapamil SR 240 mg vs propranolol SR 180 mg once daily, statistically insignificant; for mean systolic blood pressure increases / mean diastolic pressure: little difference between drugs; for mean diastolic pressure: throughout six week trial
Procedure: In this example, the validity of using a sustained release formulation of verapamil 240 mg once daily as a therapeutic alternative to sustained release propranolol 180 mg once daily in a hypertensive person is shown. The trial during which the two medications are randomly administered in a double-blind manner is six weeks. The questionnaire used is set up in a manner similar to that described in above examples except that the questions elicit information related to the disease of hypertension. Blood pressure and adverse event reports are taken daily by the patient. […] Sleepiness is reported at equal rates for both drugs. All values are statistically insignificant and the therapeutic alternative selection is objectively validated.

[1] = test system: hyperactive child (Minimum Brain Dysfunction or Attention Deficit Disorder); experiment: SPAS single-patient drug trial of methylphenidate vs placebo
Procedure: The usefulness of methylphenidate (Ritalin) treatment in a hyperactive child (Minimum Brain Dysfunction or Attention Deficit Disorder) is evaluated.
Technology: Consists of instructions, “calendar” packaging for drug and a substantially identical looking placebo to assure appropriate dosing and monitoring of compliance, questionnaires and assessment forms and instructions. […] Results are mailed to the physician and, in this case, parent for use in evaluating the usefulness of the therapy. The physician and parent are contacted, e.g., every three months to provide data on therapies utilized, and perceived outcome, until the condition is resolved.
The questionnaire portion of the kit includes an initial consent form for the parent or guardian to complete. The questionnaire also provides background information on the study and possible side effects associated with the medication. Also included therein is a form for providing relevant patient and family histories. More importantly, the questionnaire, in this case includes a portion for the weekly input by parents/guardians and school observers for answers to questions relating to the drug evaluation. Physician questionnaires are similarly arranged.
The trial calls for 40 mg to be given daily as 10 mg four times daily compared to identical appearing placebo which is also given four times daily. After completing the trial and questionnaire, the data is processed to statistically determine the results.

[2] = test system: patients with the same disorder (hyperactive child); experiment: pooled SPAS data and follow-up of patients continued on methylphenidate 40 mg daily; format: in vivo, human
Procedure: All results obtained from the data are compared against the results provided by data amassed from a pool of about 200 patients with the same disorder. If, of these 200 patients, 55 experience encouraging results (along with the current patient) they are continued on 40 mg daily treatment. If, of these 55 patients, 5 are lost to follow-up, with 50 remaining for prospective evaluation, the physician continues the patient on 40 mg methylphenidate daily based solely on the isolated SPAS single-patient drug trial results. The physician then reviews the pooled data on the 50 patients. This will be done to understand under what circumstances this individual patient is likely to continue to show benefit from methylphenidate 40 mg treatment, and what conditions lead to treatment failure.
If for example, the pool of 50 patients who continue treatment have the following scores following the original SPAS testing:
All 50 patients are followed up by telephone interview monthly for nine months or more, and outcomes are prospectively documented.
The continuing validation process using pooled data, which is a subject of this invention, provides additional data essential to formulating a rational therapeutic decision.

individual patient = experiment: SPAS abuse potential test (liking score vs placebo or comparator); details: for liking score difference vs placebo: person
Procedure: Single-patient drug kits can be designed to test for “liking scores,” “abuse potential scores,” and patient's desire to re-use the test article compared to placebo and positive controls.
In this example, the abuse potential of the narcotic analgesic codeine is tested. A single-patient trial is conducted in a patient for whom treatment with codeine is deemed appropriate. The patient receives a SPAS test kit containing codeine, an alternative drug, e.g., ibuprofen and a questionnaire designed to elicit the liking score, desirability to re-use test article and abuse potential of the patient to codeine.
In another example, in follow-up to the test above, the clinician compares diazepam to secobarbital in the same patient.

[3] = test system: previously tested similar patients; experiment: follow-up of previously tested similar patients in the database (addiction / smoking)
[4] = test system: patient with perennial allergic rhinitis; details: for incidence of sedation: day 4 of treatment
[5] = patients with statistically altered sleep patterns, within two months
[6] = pool of 50 patients who continue treatment

CC(C)NCC(O)COc1cccc2ccccc12 (centres unmarked) [propranolol]
mean systolic blood pressure increases (hypertensive person): 3% | sleepiness reported (hypertensive person; human, in vivo): equal rates | mean diastolic pressure (hypertensive person): essentially stable

COC(=O)C(c1ccccc1)C1CCCCN1 (centres unmarked) [methylphenidate]
patient's attention span ([1]; 40 mg daily as 10 mg four times daily vs placebo, methylphenidate periods): improved substantially | sleep patterns ([1]; 40 mg daily, methylphenidate periods): statistically altered | teacher comments ([1]; methylphenidate dosing periods): corroborate improved attention span | follow-up outcome, patients with no statistically altered sleep disturbances ([2]; monthly telephone interview for nine months or more, 40 mg daily): well maintained | patients who experience encouraging results ([2]; of a pool of about 200 patients with the same disorder): 55 | patients experiencing grand mal seizures [2, 5]: two | patients showing severe episodes of bizarre behaviors [2, 5]: 90% | Sleep Patterns: have been statistically altered [2, 6]: 50% have been statistically altered | Sleep Patterns: have not been statistically altered [2, 6]: 50% have not been statistically altered | Teacher Comments: corroborate improved attention span [2, 6]: 80% corroborate improved attention span | Teacher Comments: do not corroborate improved attention span [2, 6]: 20% do not corroborate improved attention span | Attention Span: have substantial improvement ([2]; pool of 50 patients who continue treatment, scores following original SPAS testing): 100% have substantial improvement | follow-up outcome, patients with statistically altered sleep patterns ([2]; within two months, 40 mg daily): loss of symptom control

C=CCC1(C(C)CCC)C(=O)NC(=O)NC1=O (centres unmarked) [secobarbital]
difference in liking scores, diazepam vs secobarbital (individual patient; same person, statistically significant difference): greater addiction potential | level of addiction on follow-up of similar patients [3]: high level of addiction

CN1CCCC1c1cccnc1 (centres unmarked) [nicotine]
liking score (individual patient; on average, patient receiving nicotine): 4 out of 5 | liking score difference vs placebo (individual patient; statistically significant): 3 units | patients who are smokers ([3]; female Caucasian patients 15 to 17 years old with similar 3-unit difference): 820 out of 975

COc1ccc2c3c1O[C@H]1[C@@H](O)C=C[C@H]4[C@@H](C2)N(C)CC[C@@]341 [codeine]
liking score (individual patient; patient on codeine): 3 out of 5 | liking score difference vs placebo (individual patient; statistically significant (Bayesian feedback)): 2 units | patients who became addicted ([3]; Caucasian female patients 30 to 40 years with similar 0 unit difference): 10 out of 1250 | patients who became addicted ([3]; black male patients 40 to 50 years old with similar 2-unit difference, treated with codeine): 25 out of 600 | patients who became addicted ([3]; similar patients with 2 unit differences, within three months): Twenty | patients who became addicted ([3]; similar patients with 3 unit differences): 50 out of 110

CN1C(=O)CN=C(c2ccccc2)c2cc(Cl)ccc21 [diazepam]
liking score (individual patient; patient on diazepam): 4 out of 5 | liking score difference vs placebo (individual patient; not statistically significant): 0 units | level of addiction on follow-up of similar patients [3]: comparatively low level of addiction

CCOC(=O)N1CCC(=C2c3ccc(Cl)cc3CCc3cccnc32)CC1 [CL, loratidine]
incidence of sedation ([4]; person): 2 on a 3 point scale

COc1ccc(CCN(C)CCCC(C#N)(c2ccc(OC)c(OC)c2)C(C)C)cc1OC (centres unmarked) [verapamil]
mean systolic blood pressure increases (hypertensive person): 3% | sleepiness reported (hypertensive person; six week trial, both drugs): equal rates | mean diastolic pressure (hypertensive person): essentially stable

CN(C)CCC(c1ccc(Cl)cc1)c1ccccn1 (centres unmarked) [CM, chlorpheniramine maleate]
patient's symptoms at reevaluation ([4]; 6 and 12 months post-initiation of CM treatment): well maintained | similar patients well maintained during a year long follow-up ([4]; database patients placed on CM after single-patient trials): 37 of the 40 | incidence of sedation ([4]; person): 2 on a 3 point scale | control of most bothersome symptom, sneezing ([4]; person, perennial allergic rhinitis): similarly and effectively controlled
